Results reported in patent US7662853B2, “Monoacetyldiacylglycerol derivative for the treatment of sepsis” (priority 2004, dated 2010).

Assays:
ICR mice = test: Toxicity test, single oral administration; format: in vivo; details: for Number of dead mice/Number of orally administered mice: 14 days
Experimental: (§1) Control group was treated 5% ethanol solution. IRC mice, housed in SPF facility were used as test animals. […] Weight increment rate(%)={Weight of day 14−Weight of day 0}÷{Weight of day 0}×100 [Mathematical Formula 2]

[1] = Toxicity test, single oral administration; format: in vivo; details: mouse, in vivo; ICR mice, oral, single dose, 14 days
Experimental: as §1

T-cell (T-4 and T-8) = test: Measurement of cytokine (IL-2) by Elispot, T cell activity; format: cell-based, mouse; details: FIG. 1: Compound 3 1 μg/ml
Experimental: Elispot bioassay ([…] enzyme-linked immunospot assay) is a very sensitive quantification assay for detecting cytokine bound to the membrane because the bottom of each well of Elispot plates used in this assay was pre-coated with a cytokine specific antibody. Thus, Elispot assay was performed to measure the T cell activity. […] Each sample was tested in duplicate. Counting the number of IL-2 producing cells by Elispot is accomplished with Elispot reader (AID Elispot Reader System).

[2] = system: C3H/HeN mice with CLP-induced septic shock; test: CLP (Cecal Ligation and Puncture) test, septic shock; format: in vivo; details: 50 mg/kg oral
Text: Ten 7-10 week old male inbred C3H/HeN mice (20-25 g of weight) were grouped. […] Septic shock was induced by CLP model in anesthetized mice. […] Control group was orally administered PBS+5% ethanol solution.

T-cells = test: Measurement of cytokine by Bio-plex in activated T-cells; format: cell-based; details: anti-CD3, anti-CD28 treated T-cells, 0.1, 1 μg/ml, 5 days, vs control
Experimental: Bio-plex can measure huge amount of cytokine at a time in a well. Thus, Bio-plex kit was used to quantify 8 kinds of cytokines of Th1/Th2 channels, which are secreted when T-cells are activated. Sterilized 24-well tissue culture plate (Nunc, Denmark) was treated with anti-CD3 and anti-CD28. Then, the plate was inoculated with T-cells by 2×10^6 cells/ml. […] On the 5th day, culture solutions at each different stage were recovered, followed by centrifugation. Supernatants were obtained and cytokine secreted therein was quantified by using Bio-plex kit according to the manufacturer's instruction (Bio-rad).

B16F10 cells = test: Melanoma model in mice; format: in vivo, C57BL/6 mice; details: Compound 3 50 mg/kg/day P.O.
Experimental: 6 week female C57BL/6 mice (provided from Asan Institute for Life Sciences Animal Lab., Seoul, Korea) were housed in specific pathogen free unit.
B16F10 cells (2×10^4) suspended in 100 μl of RPMI 1640 serum-free medium were intravenously injected via tail vein. One week before tumor cell injection, the following 3 groups were treated.
2) Dendritic cells (DC) (5×10^5 cells/day)+tumor lysate treated group
In the case of DC+tumor lysate treated group, one week before melanoma injection, 5×10^5 DC cells mixed with tumor lysate were injected to the abdominal cavity every 1 weeks. […] As a result, gross findings at 4th week control group observed multiple metastatic lesions in both lungs.

KIGB-5 cells = test: Biliary cancer model in hamster, Compound 3 dose groups; format: in vivo, Syrian golden hamsters; details: for gross findings, tumor: 4th week
Experimental: In another hand, six week old female Syrian golden hamsters were housed in specific pathogen free unit. KIGB-5 cells (5×10^5) suspended in 100 μl of RPMI 1640 serum-free medium were intravenously injected via femoral vein. […] Animals of each group were sacrificed at 4, 8, 12 weeks for pathological examination. […] At 8th week, control group observed multiple metastatic lesions in both lungs.

## CCCCC/C=C\C/C=C\CCCCCCCC(=O)OC(COC(C)=O)COC(=O)CCCCCCCCCCCCCCC (centres unmarked) [Compound 3]
ICR mice; 62.5 mg/kg oral once
  Death rate: 12.5%
  Number of dead mice/Number of orally administered mice: 1/8
ICR mice; 62.5 mg/kg˜2 g/kg oral once, 14 days observation
  toxicity: No toxicity was seen
ICR mice; 125 mg/kg oral once
  Death rate: 30%
  Number of dead mice/Number of orally administered mice: 0/8
ICR mice; 250 mg/kg oral once
  Death rate: 12.5%
  Number of dead mice/Number of orally administered mice: 1/8
ICR mice; 500 mg/kg oral once
  Death rate: 22.2%
  Number of dead mice/Number of orally administered mice: 2/9
ICR mice; 1000 mg/kg oral once
  Death rate: 0%
  Number of dead mice/Number of orally administered mice: 0/9
ICR mice; 2000 mg/kg oral once
  Death rate: 0%
  Number of dead mice/Number of orally administered mice: 0/9
[1]
  LD50 at 14 days: > 2000 mg/kg
T-cell (T-4 and T-8); T-4 cells
  increased T-4 activity comparing to control group (IL-2 Elispot spots): 1.52 folds
T-cell (T-4 and T-8); T-8 cells
  increased T-8 activity comparing to control group (IL-2 Elispot spots): 1.46 folds
[2]; 0 hour
  Survival rate: 100%
[2]; 24 hours
  Survival rate: 100%
[2]; 48 hours
  Survival rate: 100%
[2]; 72 hours
  Survival rate: 100%
[2]; 96 hours
  Survival rate: 100%
[2]; 120 hours, 50 mg/kg
  Survival rate: 100%
T-cells
  amounts of secreted cytokines IL-2, IL-4 and IL-5: bigger than those in a control group
B16F10 cells; 4th week after B16F10 i.v. injection
  gross findings, metastatic lesions in the lung: no evidence of disease in the lung
B16F10 cells; observation for 6 weeks after melanoma (B16F10) injection
  Survival rate: 90%
KIGB-5 cells; 10 mg/kg/day P.O.
  gross findings, tumor: no evidence of tumor
KIGB-5 cells; 25 mg/kg/day P.O.
  gross findings, tumor: no evidence of tumor
KIGB-5 cells; 50 mg/kg/day P.O.
  gross findings, tumor: no evidence of tumor
KIGB-5 cells; 8th week, 10 mg/kg/day P.O.
  metastatic lung lesions: showed tumor in the left lung
KIGB-5 cells; 8th week, 25 mg/kg/day P.O.
  metastatic lung lesions with microscope: showed one minute lesion with microscope
  metastatic lung lesions with naked eye: did not show any metastatic lung lesions with naked eye
KIGB-5 cells; 8th week, 50 mg/kg/day P.O.
  metastatic lung lesions with naked eye: did not show any metastatic lung lesions with naked eye
